Test: The compound was tested at a concentration of 1 uM for inhibitory activity against 17 beta-hydroxysteroid dehydrogenase from human placental microsomes

SMILES	inhibition
C[C@]12C=CC(=O)C=C1CCC1C2CC[C@@]2(C)C1CC[C@@]21CCC(=O)O1 (some centres undefined)	6%
C[C@]12CCC(=O)CC1C(=O)C[C@@H]1[C@@H]2CC[C@@]2(C)[C@H]1CC[C@@]21CCC(=O)O1 (some centres undefined)	28%
C[C@]12CC[C@@]3(CCC(=O)O3)CC1CC[C@@H]1[C@@H]2CC[C@@]2(C)[C@H]1CC[C@@]21CCC(=O)O1 (some centres undefined)	11%
C[C@]12CCC(=O)C=C1C(=O)CC1C2CC[C@@]2(C)C1CC[C@@]21CCC(=O)O1 (some centres undefined)	3%
C[C@]12CCC(=O)CC1CC[C@@H]1[C@@H]2CC[C@@]2(C)[C@H]1CC[C@@]21CCC(=O)O1 (some centres undefined)	25%
C[C@]12CC[C@@H]3c4ccc(OCc5ccccc5)cc4CC[C@H]3[C@@H]1CC[C@@]21CCC(=O)O1	11%
C[C@]12CCC(=O)C=C1CC[C@@H]1[C@@H]2CC[C@@]2(C)[C@H]1CC[C@@]21CCC(=O)O1	3%
C[C@]12CC[C@@H]3c4ccc(O)cc4CC[C@H]3[C@@H]1CC[C@@]21CCC(=O)O1	81%
COc1ccc2c(c1)CC[C@@H]1[C@@H]2CC[C@@]2(C)[C@H]1CC[C@@]21CCC(=O)O1	55%

Reference: ChEMBL document CHEMBL1128186, “Steroidal spiro-gamma-lactones that inhibit 17 beta-hydroxysteroid dehydrogenase activity in human placental microsomes” (J Med Chem, 1995)
